± gives the standard deviation of the reports.
Row | Structure (SMILES) | glass transition temperature [°C]
1 | *Oc1cccc(Oc2ccc(Oc3cccc(OC(=O)c4ccc(C(*)=O)cc4)c3)cc2)c1 (repeat unit) | 103.00
2 | *OC(=O)Oc1ccc2c(c1)Oc1cc(*)ccc1C21c2ccccc2-c2ccccc21 (repeat unit) | 295.00
3 | *C(=O)Nc1ccc(Oc2ccc(Oc3ccc(NC(=O)c4ccc5c(c4)C(=O)N(c4ccc(Oc6cccc7c(Oc8ccc(N9C(=O)c%10ccc(*)cc%10C9=O)cc8)cccc67)cc4)C5=O)cc3)cc2)cc1 (repeat unit) | 285.00
4 | *CC(*)CC1CCCCC1 (repeat unit) | 75.00
5 | *Oc1ccc(C(C)(C)c2ccc(Oc3ccc(C(=O)c4ccc(P(=O)(c5ccccc5)c5ccc(C(=O)c6ccc(*)cc6)cc5)cc4)cc3)cc2)cc1 (repeat unit) | 195.00
6 | *CC(*)C(=O)NCCC[N+](C)(C)CCCS(=O)(=O)O (repeat unit) | 141.50
7 | *CCC(=O)N* (repeat unit) [Poly(propano-3-lactam)] | 128.17 ± 24
8 | *C1OCOC(C(*)(F)F)C1(F)F (repeat unit) | 125.00
9 | *CCCCOC(=O)O* (repeat unit) | -27.00
10 | *Oc1cc(C(C)(C)C)c(Oc2ccc(C(=O)Nc3ccc(C(C)(C)c4ccc(NC(=O)c5ccc(*)cc5)cc4)cc3)cc2)cc1C(C)(C)C (repeat unit) | 254.00
11 | *Oc1ccc(C(CCC)(CCC)c2ccc(OC(*)=O)c(C)c2)cc1C (repeat unit) | 101.00
12 | *c1ccccc1C(=O)Oc1ccc2c(*)c3ccc(=O)cc-3oc2c1 (repeat unit) | 250.00
13 | *C(=O)Nc1ccc(Oc2ccc(Oc3ccc(N4C(=O)c5ccc(*)cc5C4=O)cc3)cc2)cc1 (repeat unit) | 250.00
14 | *c1ccc(Oc2ccc(C(=O)c3cccc(C(=O)c4ccc(Oc5ccc(-c6nc(-c7ccccn7)nnc6*)cc5)cc4)c3)cc2)cc1 (repeat unit) | 202.00
15 | *C(=O)c1ccc2c(c1)C(=O)N(c1ccc(C3(c4ccc(N5C(=O)c6ccc(*)cc6C5=O)cc4)c4ccccc4-c4ccccc43)cc1)C2=O (repeat unit) | 376.00
16 | *CCCCOc1ccc(/C=C2\CC/C(=C\c3ccc(OCCCCOP(=O)(O*)OC)c(OC)c3)C2=O)cc1OC (repeat unit) | 75.00
17 | *c1ccc(C(c2ccc(-c3cc(-c4ccccc4)c4cc(Oc5ccc6nc(*)cc(-c7ccccc7)c6c5)ccc4n3)cc2)(C(F)(F)F)C(F)(F)F)cc1 (repeat unit) | 260.00
18 | *CCCCCOc1ccc(CCc2ccc(O*)cc2C)cc1 (repeat unit) | 15.40
19 | *CC(*)c1ccccc1C(=O)OCCCCCC (repeat unit) | 45.00
20 | */C=C/C1=C(*)CC(C(=O)OCC)(C(=O)OCC)C1 (repeat unit) | 27.7
21 | *CC(*)C(=O)Oc1ccc(C(=O)OCC)cc1 (repeat unit) | 37.00
22 | *CCCCCCCCCOC(=O)c1ccc2cc(C(=O)O*)ccc2c1 (repeat unit) | 50.00

Row | Structure (SMILES) | glass transition temperature [°C]
23 | *C(=O)Nc1cccc(NC(=O)c2ccc3c(c2)C(=O)N(c2cccc(P(=O)(c4ccccc4)c4cccc(N5C(=O)c6ccc(*)cc6C5=O)c4)c2)C3=O)n1 (repeat unit) | 156.00
24 | *CCCCCCCCCCCCCCCCOC(=O)CC/C=C/CCC(=O)O* (repeat unit) | -18.00
25 | *CC(=O)Nc1ccc(Oc2c(F)c(F)c(Oc3ccc(NC(=O)c4ccc5c(c4)C(=O)N(*)C5=O)cc3)c(F)c2F)cc1 (repeat unit) | 254.00
26 | *CC(*)(C)C(=O)OCCCCCCCCCCCCOc1ccc2cc(C(=O)Oc3ccccc3)ccc2c1 (repeat unit) | 12.00
27 | *OC(*)CCCCCC (repeat unit) | -116.00
28 | *c1ccc(/C=N/c2cccc(/N=C/c3ccc(-c4ccc(*)s4)cc3)c2)cc1 (repeat unit) | 150.00
29 | *CC(*)(C)C(=O)Oc1ccc(C(=O)/C=C/c2ccc(OCc3ccccc3)cc2)cc1 (repeat unit) | 152.00
30 | *CC(*)(C)C(=O)OC(C)(C)C (repeat unit) [Poly(t-butyl methacrylate) ] | 107 ± 0.6
31 | *c1ccc(Oc2ccc(C(=O)c3ccc(Oc4ccc(-c5c6c(c(*)c7ccccc57)C(=O)N(c5cccc(C(F)(F)F)c5)C6=O)cc4)cc3)cc2)cc1 (repeat unit) | 252.00
32 | *c1ccc(-c2ccc(N(*)c3ccc(CCCC)cc3)cc2)cc1 (repeat unit) | 180.00
33 | *Oc1ccc(NC(=O)c2ccc(C(=O)Nc3ccc(*)cc3)cc2)cc1 (repeat unit) | 240.50
34 | *c1c(C)cc(C(c2cc(C(F)(F)F)cc(C(F)(F)F)c2)c2cc(C)c(N3C(=O)c4ccc(-c5ccc6c(c5)C(=O)N(*)C6=O)cc4C3=O)c(C)c2)cc1C (repeat unit) | 317.40
35 | *CCCCCCN1C(=O)C(=O)N(c2ccc(C)c(N3C(=O)C(=O)N(*)C3=O)c2)C1=O (repeat unit) | 181.50
36 | *c1cccc(P(=O)(c2ccc(C(F)(F)F)cc2)c2cccc(N3C(=O)c4ccc(Oc5ccc6c(c5)C(=O)N(*)C6=O)cc4C3=O)c2)c1 (repeat unit) | 248.00
37 | *C(=O)Nc1cccc(NC(=O)c2ccc3[nH]c(-c4cccc(-c5nc6cc(*)ccc6[nH]5)c4)nc3c2)n1 (repeat unit) | 302.00
38 | *c1ccc(Oc2ccc(C3(c4ccc(Oc5ccc(N6C(=O)c7ccc(Oc8c(C)cc(C(C)(C)c9cc(C)c(Oc%10ccc%11c(c%10)C(=O)N(*)C%11=O)c(C)c9)cc8C)cc7C6=O)cc5)cc4)C4CC5CC(C4)CC3C5)cc2)cc1 (repeat unit) | 282.00
39 | *c1c(C)cc(-c2cc(C)c(N3C(=O)c4ccc(Oc5cc6ccccc6cc5Oc5ccc6c(c5)C(=O)N(*)C6=O)cc4C3=O)c(C)c2)cc1C (repeat unit) | 308.00
40 | *Cc1ccccc1[Si](*)(C)c1ccccc1 (repeat unit) | 93.80
41 | *CC(*)c1ccc(C[Si](C)(C)C)cc1 (repeat unit) | 82.00
42 | *C(=O)OCCOC(=O)c1cccc(N2C(=O)c3ccc(*)cc3C2=O)c1 (repeat unit) | 220.00
43 | *CC(C)(C)S* (repeat unit) | -14.00
44 | *O[Si](*)(C)c1ccccc1 (repeat unit) | -28

Row | Structure (SMILES) | glass transition temperature [°C]
45 | *C(=O)c1ccc2c(c1)C(=O)N(c1ccc(OCCOCCOc3ccc(N4C(=O)c5ccc(*)cc5C4=O)cc3)cc1)C2=O (repeat unit) | 235.00
46 | *CCCCCCN(CC(F)(F)C(F)(F)C(F)(F)C(F)(F)C(F)(F)C(F)(F)C(F)(F)F)C(=O)C(F)(F)C(F)(F)C(F)(F)C(=O)N(*)CC(F)(F)C(F)(F)C(F)(F)C(F)(F)C(F)(F)C(F)(F)C(F)(F)F (repeat unit) | 187.50
47 | *Oc1ccc(CC(NC(=O)Cc2ccc(OC(=O)CCC(*)=O)cc2)C(=O)OCCCCCC)cc1 (repeat unit) | 59.00
48 | *Oc1ccc(/N=C/c2ccc(Oc3ccc(C(c4ccccc4)(c4ccccc4)c4ccc(Oc5ccc(/C=N/c6ccc(*)cc6)cc5)cc4)cc3)cc2)cc1 (repeat unit) | 211.00
49 | *CCCCCCCCC(c1ccc(O)cc1)C(*)c1ccc(O)cc1C (repeat unit) | -12.00
50 | *Oc1c(Br)cc(C(C)(C)c2cc(Br)c(OC(=O)c3cccc(C(*)=O)c3)c(Br)c2)cc1Br (repeat unit) | 115.00
51 | *OC(=O)C(Cc1ccccc1)NC(=O)CCCCCCCCC(=O)NC(Cc1ccccc1)C(=O)OC1COC2C(*)COC12 (repeat unit) | 74.00
52 | *CC(*)c1cc(OC)c(OC(C)=O)c(OC)c1 (repeat unit) | 147.00
53 | *O[Si](*)(C)CCCCCCCCCCC(=O)Oc1ccc(-c2ccc(OC(=O)c3ccc(OCCCCCCC)cc3)cc2)cc1 (repeat unit) | 61.10
54 | *c1ccc2c(c1)C(=O)N(c1ccc(-c3ccc(N4C(=O)c5ccc(C(*)(C(F)(F)F)C(F)(F)F)cc5C4=O)c(OCCCCCCOc4ccc(/C=C/c5ccc(F)cc5)cc4)c3)cc1OCCCCCCOc1ccc(/C=C/c3ccc(F)cc3)cc1)C2=O (repeat unit) | 140.00
55 | *Nc1cccc2c(NC(=O)c3ccc(C(*)=O)cc3)cccc12 (repeat unit) | 305.00
56 | *Oc1ccc(S(=O)(=O)c2ccc(Oc3ccc(C4CCCC(C(C)c5ccc(*)cc5)C4)cc3)cc2)cc1 (repeat unit) | 230.00
57 | *Nc1cc(NC(=O)Nc2ccc(Cc3ccc(NC(*)=O)cc3)cc2)cc(C(=O)Nc2cccc3c2C(=O)c2ccccc2C3=O)c1 (repeat unit) | 178.00
58 | *c1ccc(Oc2ccc(C(C)(C)c3ccc(Oc4ccc(S(*)(=O)=O)cc4)cc3)cc2)s1 (repeat unit) | 162
59 | *Oc1ccc(CNC(=O)CCCCC(=O)NCc2ccc(OC3COC4C(*)COC34)cc2)cc1 (repeat unit) | 116.00
60 | *Nc1ccc(NC(=O)c2ccc(NC(=O)CCCCCCCCCCCCC(=O)Nc3ccc(C(*)=O)cc3)cc2)cc1C(=O)OCCCCCCCCCCCC (repeat unit) | 199.50
61 | *Oc1ccc(-c2ccc(OC(=O)c3cc(OCCCCCC)c(C(*)=O)cc3OCCCCCC)cc2)cc1 (repeat unit) | 113.00
62 | *Oc1cccc(NC(=O)CCCCC(=O)Nc2ccc(*)cc2)c1 (repeat unit) | 160.00
63 | *N=P(N=P(N=S(*)(=O)NCCC)(NCCC)NCCC)(NCCC)NCCC (repeat unit) | 6.00
64 | *C(F)C(*)C(F)(F)F (repeat unit) | 87.00
65 | *c1cccc(P(=O)(c2ccc(Oc3ccc(C45CC6CC(CC(C6)C4)C5)cc3)cc2)c2cccc(N3C(=O)c4ccc(Oc5ccc6c(c5)C(=O)N(*)C6=O)cc4C3=O)c2)c1 (repeat unit) | 290.00
66 | *CC(=O)c1ccc(Oc2ccc(C(=O)COc3ccc(/C=C4\CCC/C(=C\c5ccc(O*)c(OC)c5)C4=O)cc3OC)cc2)cc1 (repeat unit) | 211.8
